From paper PMC10763615, “Identification and engineering of potent cyclic peptides with selective or promiscuous binding through biochemical profiling and bioinformatic data analysis” (RSC Chemical Biology, 2023)
Like-named read-outs stand apart in the source and are kept apart here. Positions of bridges follow the written chain, without caps; N, C: chain ends. Residues, ends and D or L forms follow the SMILES beside them.

Key:
Type in all cases: binding
FGF-R4 ECD = molecular target: T1, FGF-R4 ECD (Homo sapiens, UniProt P22455); assay: single concentration BLI of crude peptides; conditions: read-out: KD (4)
T1 construct: DNA constructs for the extracellular domain (ECD) of human FGF-; HPC4 (C); made in house; host or cells: HEK 293-6E
T1 sequence (P22455 22-369 limits assumed): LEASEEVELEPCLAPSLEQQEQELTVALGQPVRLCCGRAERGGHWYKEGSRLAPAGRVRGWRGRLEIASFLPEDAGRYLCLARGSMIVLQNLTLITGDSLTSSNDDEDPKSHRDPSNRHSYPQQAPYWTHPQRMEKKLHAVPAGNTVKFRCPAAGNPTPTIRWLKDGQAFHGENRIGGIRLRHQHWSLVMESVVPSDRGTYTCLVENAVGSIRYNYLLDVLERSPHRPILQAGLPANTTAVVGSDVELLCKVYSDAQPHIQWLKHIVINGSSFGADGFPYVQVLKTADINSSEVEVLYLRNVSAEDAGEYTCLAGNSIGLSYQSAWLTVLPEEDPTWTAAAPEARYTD
In short: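 BLI, streptavidin sensors loaded with biotinylated receptor ECD. Single-point: ~1 μM crude peptide, PBS pH7.4/0.05% Tween-20/0.01% BSA; association then dissociation in buffer. KD corrected for UPLC-CAD-determined concentration.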

FGF-R1C ECD = molecular target: T2, FGF-R1C ECD (Homo sapiens, UniProt P11362); assay: biochemical; parameters: DNA constructs for the extracellular domain (ECD) of human FGF-; HPC4 (C); made in house; host or cells: HEK 293-6E
T2 sequence (P11362 22-376 limits assumed): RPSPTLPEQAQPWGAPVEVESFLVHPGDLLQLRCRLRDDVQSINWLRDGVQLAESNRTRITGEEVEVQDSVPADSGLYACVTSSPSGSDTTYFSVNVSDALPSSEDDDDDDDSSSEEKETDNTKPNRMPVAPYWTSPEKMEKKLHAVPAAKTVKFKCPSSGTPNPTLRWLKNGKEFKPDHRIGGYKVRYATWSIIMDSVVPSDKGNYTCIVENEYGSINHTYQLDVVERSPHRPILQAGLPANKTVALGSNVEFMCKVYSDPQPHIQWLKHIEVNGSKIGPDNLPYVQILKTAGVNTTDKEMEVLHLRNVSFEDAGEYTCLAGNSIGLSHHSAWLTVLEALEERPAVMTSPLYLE
In short: (§1)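 Biolayer interferometry with biotinylated FGF-R ECD on streptavidin biosensors in PBS pH 7.4, 0.05% Tween-20, 0.01% BSA. Multi-concentration: purified peptide dilution series fitted to a multi-point KD model.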

FGF-R3C ECD = molecular target: T3, FGF-R3C ECD (Homo sapiens, UniProt P22607); assay: biochemical; parameters: DNA constructs for the extracellular domain (ECD) of human FGF-; HPC4 (C); made in house; host or cells: HEK 293-6E
T3 sequence (P22607 23-375 limits assumed): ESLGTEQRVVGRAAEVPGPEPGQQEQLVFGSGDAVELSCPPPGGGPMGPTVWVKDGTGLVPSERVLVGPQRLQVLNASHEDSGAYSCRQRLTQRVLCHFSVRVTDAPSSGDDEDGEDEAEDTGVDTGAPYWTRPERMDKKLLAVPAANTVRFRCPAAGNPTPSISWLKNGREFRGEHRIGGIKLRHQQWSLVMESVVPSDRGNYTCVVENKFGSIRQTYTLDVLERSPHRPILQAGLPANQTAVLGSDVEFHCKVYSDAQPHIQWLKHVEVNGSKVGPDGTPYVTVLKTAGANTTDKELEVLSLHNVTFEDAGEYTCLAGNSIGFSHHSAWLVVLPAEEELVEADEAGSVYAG
In short: as §1

[1] = crude T18 selection 1 (1:1:1) peptides, single concentration BLI (Table S4)

SMILES	Kd (FGF-R4 ECD; crude NNK peptides, single concentration BLI (Table S3))	Kd (FGF-R1C ECD)	Kd (FGF-R3C ECD)	Kd (FGF-R4 ECD; [1])
CSCC[C@H](NC(C)=O)C(=O)N[C@H]1CSSC[C@@H](C(=O)NCC(=O)N[C@@H](CO)C(=O)NCC(=O)N[C@@H](CO)C(=O)N[C@@H](CC(=O)O)C(=O)N[C@@H](Cc2ccc(O)cc2)C(=O)N[C@@H](CCCCN)C(=O)N[C@@H](CC(=O)O)C(=O)N[C@@H](CC(=O)O)C(=O)N[C@@H](CC(=O)O)C(=O)N[C@@H](CC(=O)O)C(=O)N[C@@H](CCCCN)C(N)=O)NC(=O)[C@H](CCCCN)NC(=O)[C@H](CC(C)C)NC(=O)[C@H](C(C)C)NC(=O)[C@H](CC(C)C)NC(=O)[C@H](CCC(=O)O)NC(=O)[C@@H]2CCCN2C(=O)[C@H](CCSC)NC(=O)[C@H](Cc2ccccc2)NC(=O)[C@H](Cc2c[nH]c3ccccc23)NC(=O)[C@H](Cc2c[nH]c3ccccc23)NC1=O (Ac-MCWWFMPELVLKCGSGSDYKDDDDK-NH2; disulfide 2-13)	> 10000 nM	> 10 µM	> 10 µM	–
CSCC[C@H](NC(C)=O)C(=O)N[C@H]1CSSC[C@@H](C(=O)NCC(=O)N[C@@H](CO)C(=O)NCC(=O)N[C@@H](CO)C(=O)N[C@@H](CC(=O)O)C(=O)N[C@@H](Cc2ccc(O)cc2)C(=O)N[C@@H](CCCCN)C(=O)N[C@@H](CC(=O)O)C(=O)N[C@@H](CC(=O)O)C(=O)N[C@@H](CC(=O)O)C(=O)N[C@@H](CC(=O)O)C(=O)N[C@@H](CCCCN)C(N)=O)NC(=O)[C@H](CC(C)C)NC(=O)[C@H](CCCNC(=N)N)NC(=O)[C@H](CCC(=O)O)NC(=O)[C@H](Cc2c[nH]c3ccccc23)NC(=O)[C@H](Cc2ccc(O)cc2)NC(=O)[C@H](Cc2ccccc2)NC(=O)[C@H](CO)NC(=O)[C@H](Cc2c[nH]cn2)NC(=O)[C@H](CCC(N)=O)NC(=O)[C@H](CC(=O)O)NC(=O)[C@H](Cc2ccc(O)cc2)NC(=O)[C@H](Cc2c[nH]c3ccccc23)NC1=O (Ac-MCWYDQHSFYWERLCGSGSDYKDDDDK-NH2; disulfide 2-15)	–	> 10 µM	> 10 µM	> 10000 nM
CC[C@H](C)[C@@H]1NC(=O)[C@H](CC(=O)O)NC(=O)[C@H](Cc2ccc(O)cc2)NC(=O)[C@@H](NC(=O)[C@H](CCSC)NC(C)=O)CSSC[C@@H](C(=O)NCC(=O)N[C@@H](CO)C(=O)NCC(=O)N[C@@H](CO)C(=O)N[C@@H](CC(=O)O)C(=O)N[C@@H](Cc2ccc(O)cc2)C(=O)N[C@@H](CCCCN)C(=O)N[C@@H](CC(=O)O)C(=O)N[C@@H](CC(=O)O)C(=O)N[C@@H](CC(=O)O)C(=O)N[C@@H](CC(=O)O)C(=O)N[C@@H](CCCCN)C(N)=O)NC(=O)[C@H](Cc2c[nH]cn2)NC(=O)[C@H](Cc2ccc(O)cc2)NC(=O)[C@H](C(C)C)NC(=O)[C@H]([C@@H](C)O)NC(=O)[C@H]([C@@H](C)CC)NC(=O)[C@H](Cc2ccc(O)cc2)NC(=O)[C@H](CC(=O)O)NC(=O)[C@H](Cc2ccccc2)NC(=O)[C@H](C(C)C)NC1=O (Ac-MCYDIVFDYITVYHCGSGSDYKDDDDK-NH2; disulfide 2-15)	–	> 10 µM	> 10 µM	21 nM
CC[C@H](C)[C@@H]1NC(=O)[C@H](CCC(=O)O)NC(=O)[C@H](CC(=O)O)NC(=O)[C@H](CCC(=O)O)NC(=O)[C@H](Cc2ccc(O)cc2)NC(=O)[C@@H](NC(=O)[C@H](CCSC)NC(C)=O)CSSC[C@@H](C(=O)NCC(=O)N[C@@H](CO)C(=O)NCC(=O)N[C@@H](CO)C(=O)N[C@@H](CC(=O)O)C(=O)N[C@@H](Cc2ccc(O)cc2)C(=O)N[C@@H](CCCCN)C(=O)N[C@@H](CC(=O)O)C(=O)N[C@@H](CC(=O)O)C(=O)N[C@@H](CC(=O)O)C(=O)N[C@@H](CC(=O)O)C(=O)N[C@@H](CCCCN)C(N)=O)NC(=O)[C@H](Cc2ccc(O)cc2)NC(=O)[C@H](CC(C)C)NC(=O)[C@H](C(C)C)NC(=O)[C@H](CCCCN)NC(=O)[C@H](Cc2ccc(O)cc2)NC(=O)[C@H](CC(C)C)NC(=O)[C@H](Cc2c[nH]c3ccccc23)NC1=O (Ac-MCYEDEIWLYKVLYCGSGSDYKDDDDK-NH2; disulfide 2-15)	–	> 10 µM	> 10 µM	9 nM
